{"source": "patent US20260176232A1", "about": "“PROBENECID COMPOUNDS FOR THE TREATMENT OF INFLAMMASOME-MEDIATED DERMATOLOGICAL CONDITIONS” (Bacainn Biotherapeutics, Ltd., priority 2022, published 2026)", "key": {"NLRC4 inflammasome": {"target": "NLRC4 inflammasome (Mus musculus, UniProt Q3UP24)", "sequence (Q3UP24 whole entry)": "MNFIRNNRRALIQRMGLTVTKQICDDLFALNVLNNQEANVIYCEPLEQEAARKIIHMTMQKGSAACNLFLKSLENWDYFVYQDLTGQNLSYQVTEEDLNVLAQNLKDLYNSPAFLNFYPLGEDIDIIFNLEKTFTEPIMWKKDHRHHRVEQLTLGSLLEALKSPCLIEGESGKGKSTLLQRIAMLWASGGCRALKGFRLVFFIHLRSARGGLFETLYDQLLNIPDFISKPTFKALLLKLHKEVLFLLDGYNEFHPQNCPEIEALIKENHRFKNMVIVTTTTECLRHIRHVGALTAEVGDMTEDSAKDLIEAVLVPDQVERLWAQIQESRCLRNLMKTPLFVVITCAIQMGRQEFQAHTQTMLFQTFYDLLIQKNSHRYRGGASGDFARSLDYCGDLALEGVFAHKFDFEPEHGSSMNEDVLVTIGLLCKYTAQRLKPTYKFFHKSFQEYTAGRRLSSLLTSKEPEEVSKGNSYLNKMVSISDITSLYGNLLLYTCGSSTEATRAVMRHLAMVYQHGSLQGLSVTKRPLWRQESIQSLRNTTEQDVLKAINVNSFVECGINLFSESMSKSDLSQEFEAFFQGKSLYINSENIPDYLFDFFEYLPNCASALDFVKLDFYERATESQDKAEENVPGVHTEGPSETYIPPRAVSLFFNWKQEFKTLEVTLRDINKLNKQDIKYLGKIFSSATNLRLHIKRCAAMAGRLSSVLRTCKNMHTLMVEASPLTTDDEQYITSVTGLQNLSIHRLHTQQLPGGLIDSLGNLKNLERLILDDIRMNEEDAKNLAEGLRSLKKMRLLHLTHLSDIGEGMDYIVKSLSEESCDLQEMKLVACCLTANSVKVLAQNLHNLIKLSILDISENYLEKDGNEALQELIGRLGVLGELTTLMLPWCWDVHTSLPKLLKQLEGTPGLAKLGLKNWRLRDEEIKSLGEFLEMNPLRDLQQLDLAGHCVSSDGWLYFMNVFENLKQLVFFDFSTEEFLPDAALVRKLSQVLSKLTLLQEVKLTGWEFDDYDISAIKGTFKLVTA", "assay": "IL-1β secretion in macrophages challenged with Flagellin (FIG. 4C)", "format": "cell-based, human", "details": "BT032 20, 100 μM; 6 h", "text": "(§1) In vitro stimulation of human macrophages."}, "NLRP3 inflammasome": {"target": "NLRP3 inflammasome (Mus musculus, UniProt Q8R4B8)", "sequence (Q8R4B8 whole entry)": "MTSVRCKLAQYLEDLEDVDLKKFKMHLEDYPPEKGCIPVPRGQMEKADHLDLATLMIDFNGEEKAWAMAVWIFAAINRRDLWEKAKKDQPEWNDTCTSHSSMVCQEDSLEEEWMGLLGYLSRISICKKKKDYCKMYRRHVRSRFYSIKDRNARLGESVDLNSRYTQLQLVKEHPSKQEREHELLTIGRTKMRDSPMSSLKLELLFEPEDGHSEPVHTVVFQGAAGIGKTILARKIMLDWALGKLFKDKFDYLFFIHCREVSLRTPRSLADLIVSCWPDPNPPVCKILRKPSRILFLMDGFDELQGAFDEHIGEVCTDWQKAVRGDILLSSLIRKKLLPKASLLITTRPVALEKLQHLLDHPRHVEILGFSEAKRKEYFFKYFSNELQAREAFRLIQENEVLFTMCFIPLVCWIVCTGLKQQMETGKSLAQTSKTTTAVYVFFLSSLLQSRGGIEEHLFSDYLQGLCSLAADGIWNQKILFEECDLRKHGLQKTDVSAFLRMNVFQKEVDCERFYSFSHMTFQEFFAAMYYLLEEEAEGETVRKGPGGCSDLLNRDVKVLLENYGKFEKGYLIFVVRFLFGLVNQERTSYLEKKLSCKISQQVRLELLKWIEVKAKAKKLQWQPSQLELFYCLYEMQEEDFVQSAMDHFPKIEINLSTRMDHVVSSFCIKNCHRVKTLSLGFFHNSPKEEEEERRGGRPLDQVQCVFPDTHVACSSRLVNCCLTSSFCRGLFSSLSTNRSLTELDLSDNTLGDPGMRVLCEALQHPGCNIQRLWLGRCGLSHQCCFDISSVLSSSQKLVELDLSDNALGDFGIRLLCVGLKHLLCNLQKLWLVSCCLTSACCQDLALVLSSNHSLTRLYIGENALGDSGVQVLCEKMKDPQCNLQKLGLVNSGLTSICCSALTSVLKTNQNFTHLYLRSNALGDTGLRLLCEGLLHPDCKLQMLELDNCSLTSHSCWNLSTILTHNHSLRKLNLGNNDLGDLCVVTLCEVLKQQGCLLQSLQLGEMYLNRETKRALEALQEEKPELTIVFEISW", "assay": "IL-1β secretion in macrophages challenged with nigericin, MSU or silica (FIG. 4C)", "details": "BT032 20, 100 μM; MCC950 5 μM; secreted IL-1β"}, "[1]": {"test_system": "anisomycin-induced psoriatic dermatitis", "assay": "Anisomycin-induced psoriatic dermatitis, topical treatment of murine ear", "parameters": "species or system C57BL/6 mice", "details": "mouse, in vivo", "text": "Psoriasis is a chronic inflammatory skin disease characterized by IL-17-mediated immune responses, and p38 is known to be highly activated in the psoriatic epidermis. In this example, a p38 activator, anisomycin, is applied daily to murine skin. The probenecid analogs of the present technology (e.g., BT032) are applied to murine psoriatic models topically or to human psoriatic skin specimens ex vivo. Mice. Eight- to 12-week old female mice are used in this study. All animals are of the C57BL/6 genetic background. Animals are maintained under specific pathogen-free conditions. Anisomycin treatment. Anisomycin solution (2 mg/mL in 99.5% ethanol) is applied to the inner and outer sides of a murine ear once daily at a dosage of 10 μL per side of the ear. Histological analyses. For histologic examination, ear skin samples are fixed with 10% formalin and embedded in paraffin. Sections along the median plane of the ear with a thickness of 5 μm are prepared and subjected to staining with hematoxylin and eosin (H&E). Images of two consecutive microscopic fields of H&E-stained sections are obtained using a digital microscope. Time course changes in ear thickness are measured. Thickness is measured daily before treatment."}, "NLRP1 inflammasome": {"test_system": "NLRP1 inflammasome", "assay": "IL-1β secretion in macrophages challenged with L18-MDP (FIG. 4C)", "format": "cell-based, human", "details": "BT032 20, 100 μM; MCC950 5 μM; L18-MDP 100 μg/ml 16 h", "text": "as §1"}, "Recombinant NLRP3": {"test_system": "Recombinant NLRP3", "assay": "Photo-affinity labelling of recombinant NLRP3, anti-PEG immunoblot (FIG. 9C)", "format": "binding", "details": "inferred from photo-affinity probes ADS165, ADS167"}}, "data": [{"smiles": "CCCN(CCC)S(=O)(=O)c1ccc(-c2ccc(CCCC(=O)O)cc2)cc1", "note": "[BT032, 4-(4′-(N,N-dipropylsulfamoyl)-[1,1′-biphenyl]-4-yl)butanoic acid]", "values": [{"measurement": "NLRC4 (Flagellin)-mediated inflammasome activation", "setting": "NLRC4 inflammasome", "result": "no effect"}, {"measurement": "NLRP3 (Nigericin, MSU, Silica)-induced inflammasome activation", "setting": "NLRP3 inflammasome", "result": "dose-dependently inhibited"}, {"measurement": "ear thickness, scaly erythema, and histologic changes induced by anisomycin", "setting": "[1]", "result": "attenuated"}, {"measurement": "NLRP1 (L18-MDP)-induced inflammasome activation", "setting": "NLRP1 inflammasome", "result": "dose-dependently inhibited"}, {"measurement": "direct interaction with NLRP3", "setting": "Recombinant NLRP3", "result": "directly interacts proximal to the Walker B motif within the NACHT domain"}]}]}
